Literature values in patent US20090130675A1, “Genes Involved in the Biosynthesis of Thiocoraline and Heterologous Production of Same” (PHARMA MAR, S.A., priority 2005, published 2009).

What was measured:
[1] = test system: human carcinoma xenografts; details: in vivo, human carcinoma xenografts (Faircloth et al. 1997)
Gram-positive bacteria = details: against Gram-positive bacteria
[2] = test system: cell lines of different types of solid tumors, such as melanoma, breast, non-microcytic lung and colon cancer; details: in vitro

Substance: Thiocoraline
- antitumor activity [1]: marked antitumor activity
- antibacterial activity (Gram-positive bacteria): shows antibacterial activity
- capacity to inhibit the growth of cell lines [2]: inhibit the growth of cell lines
